# Article PMC4965013, “Open Source Drug Discovery with the Malaria Box Compound Collection for Neglected Diseases and Beyond” (PLoS Pathogens, 2016)
# Experiments:
# [1] = test system: Saccharomyces cerevisiae strain WC081; test: Yeast disc diffusion in combination with artemisinin; assay type: cell-based; conditions: 10 µL of 1 mM on disc, 0.2 µM artemisinin, read-out: larger zone size with artemisinin (SCG+artemisinin minus SCG)
# Text: Yeast screening for enhanced drug effects in combination with artemisinin, Jensen group (data presented first in this paper). […] Yeast (S. cerevisiae) was used as a proxy for P. falciparum, because the killing of S. cerevisiae and P. falciparum appear to have similarities. Saccharomyces cerevisiae strain WC081 (Mat a, leu2∆0, lys2∆0, ura3∆0, his3∆1, pdr1∆::HIS3, pdr3∆::kanMX4) was utilized and was originally derived from strain BY4742. Regulators of Multi-drug resistance transporters have been deleted from this strain to enhance the toxicity of compounds. Assay utilized the disc diffusion method with the observance of a clear zone indicating inhibition of growth. Synthetic complete medium containing 3% glycerol as a carbon source (SCG) was used in each assay. 10 µL of each compound at 1 mM was added to a paper disc which was placed on SCG and SCG^+artemisinin (0.2 µM) plates seeded with 10e6 yeast cells. Plates were incubated at 30 °C for 5 days and clear zones were measured. Compounds that produced a larger clear zone in the presence of artemisinin were considered to have an additive interaction with artemisinin. Results are reported as diameter of clear zone on SCG^+artemisinin plates - diameter of clear zone on SCG plates without artemisinin.
# [2] = test system: P. falciparum 3D7 trophozoites; test: Metabolomic fingerprint profiling LC-MS; assay type: cell-based, Plasmodium falciparum; parameters: UDP-D-glucose / ADP-D-glucose: unit not given here
# P. falciparum = test: EC50 listed in S2 Table Metabolomics (used to set the concentration tested); assay type: cell-based; conditions: Plasmodium falciparum; EC50 used for Factor_XEC50 in metabolomics; read-out: EC50_nM
# [3] = metabolite level change after treatment
structure (smiles),measurement,setting,value
Cc1cc(Nc2ccc3ccccc3c2)n2ncnc2n1 [MMV011099],zone of inhibition at 1000 µM,[1],7 mm
same,Acetyllysine,"[2]; S2 Table Metabolomics, metabolite Acetyllysine",0.02852
same,N-acetyl-L-ornithine,"[2]; S2 Table Metabolomics, metabolite N-acetyl-L-ornithine",0.1505
same,N-carbamoyl-L-aspartate,"[2]; S2 Table Metabolomics, metabolite N-carbamoyl-L-aspartate",3.868
same,NADPH,"[2]; S2 Table Metabolomics, metabolite NADPH",1.182
same,dAMP,"[2]; S2 Table Metabolomics, metabolite dAMP",-0.08024
same,dCMP,"[2]; S2 Table Metabolomics, metabolite dCMP",-0.5906
same,dTDP,"[2]; S2 Table Metabolomics, metabolite dTDP",-1.017
same,dTMP,"[2]; S2 Table Metabolomics, metabolite dTMP",-0.9279
same,dTTP,"[2]; S2 Table Metabolomics, metabolite dTTP",-1.156
same,dihydroorotate,"[2]; S2 Table Metabolomics, metabolite dihydroorotate",4.157
same,orotate,"[2]; S2 Table Metabolomics, metabolite orotate",-1.974
same,DLH,"[2]; S2 Table Metabolomics, peptide DLH",0.4532
same,DLS/SDL/SID,"[2]; S2 Table Metabolomics, peptide DLS/SDL/SID",0.4641
same,PD,"[2]; S2 Table Metabolomics, peptide PD",0.1181
same,PEE,"[2]; S2 Table Metabolomics, peptide PEE",0.2947
same,PVNF,"[2]; S2 Table Metabolomics, peptide PVNF",0.2329
same,3-phosphoglycerate,"[2]; metabolite 3-phosphoglycerate, S2 Table Metabolomics",-0.2056
same,ADP-D-glucose,"[2]; metabolite ADP-D-glucose, S2 Table Metabolomics",0.1525
same,ATP,"[2]; metabolite ATP, S2 Table Metabolomics",0.2332
same,CDP,"[2]; metabolite CDP, S2 Table Metabolomics, change in metabolite level after compound treatment",-0.709
same,D-sedoheptulose-1/7-phosphate,"[2]; metabolite D-sedoheptulose-1/7-phosphate, S2 Table Metabolomics, change in metabolite level after compound treatment",0.01889
same,FAD,"[2]; metabolite FAD, S2 Table Metabolomics",0.08024
same,GMP,"[2]; metabolite GMP, S2 Table Metabolomics, change in metabolite level after compound treatment",0.02967
same,NAD+,"[2]; metabolite NAD+, S2 Table Metabolomics",-0.0008425
same,NADP+,"[2]; metabolite NADP+, S2 Table Metabolomics",0.1353
same,Octoluse Bisphosphate,"[2]; metabolite Octoluse Bisphosphate, S2 Table Metabolomics, change in metabolite level after compound treatment",0.08614
same,Pyroglutamic acid,"[2]; metabolite Pyroglutamic acid, S2 Table Metabolomics",-0.4752
same,UDP-D-glucose,"[2]; metabolite UDP-D-glucose, S2 Table Metabolomics",0.067
same,UDP-D-glucuronate,"[2]; metabolite UDP-D-glucuronate, S2 Table Metabolomics",-0.02366
same,UDP-N-acetyl-glucosamine,"[2]; metabolite UDP-N-acetyl-glucosamine, S2 Table Metabolomics",-0.1127
same,UDP,"[2]; metabolite UDP, S2 Table Metabolomics, change in metabolite level after compound treatment",-1.3628
same,UMP,"[2]; metabolite UMP, S2 Table Metabolomics, change in metabolite level after compound treatment",-1.675
same,UTP,"[2]; metabolite UTP, S2 Table Metabolomics, change in metabolite level after compound treatment",-1.64
same,a-ketoglutarate,"[2]; metabolite a-ketoglutarate, S2 Table Metabolomics",-1.062
same,citrate/isocitrate,"[2]; metabolite citrate/isocitrate, S2 Table Metabolomics, change in metabolite level after compound treatment",-1.28
same,cytidine,"[2]; metabolite cytidine, S2 Table Metabolomics",0.7717
same,dATP,"[2]; metabolite dATP, S2 Table Metabolomics",0.5433
same,dGMP/AMP,"[2]; metabolite dGMP/AMP, S2 Table Metabolomics, change in metabolite level after compound treatment",-0.03244
same,fumarate,"[2]; metabolite fumarate, S2 Table Metabolomics, change in metabolite level after compound treatment",-1.091
same,glucose-1/6-phosphate,"[2]; metabolite glucose-1/6-phosphate, S2 Table Metabolomics, change in metabolite level after compound treatment",0.2093
same,glycerate,"[2]; metabolite glycerate, S2 Table Metabolomics, change in metabolite level after compound treatment",-1.246
same,guanine,"[2]; metabolite guanine, S2 Table Metabolomics, change in metabolite level after compound treatment",-0.547
same,guanosine,"[2]; metabolite guanosine, S2 Table Metabolomics, change in metabolite level after compound treatment",-1.524
same,hypoxanthine,"[2]; metabolite hypoxanthine, S2 Table Metabolomics",0.001118
same,indole,"[2]; metabolite indole, S2 Table Metabolomics",0.03287
same,inosine,"[2]; metabolite inosine, S2 Table Metabolomics, change in metabolite level after compound treatment",-0.4013
same,2_3-Diphosphoglyceric acid,[2]; [3],-0.01924
same,4-phosphopantothenate,[2]; [3],-0.6208
same,6-phospho-D-gluconate,[2]; [3],0.1135
same,FMN,[2]; [3],-0.06047
same,IMP,[2]; [3],-0.0451
same,Pyrophosphate,[2]; [3],0.1187
same,Sedoheptoluse bisphosphate,[2]; [3],-0.1999
same,cyclic-AMP,[2]; [3],-0.1393
same,glutathione disulfide,[2]; [3],-0.2357
same,lactate,[2]; [3],-0.8843
same,myo-inositol,[2]; [3],-1.14
same,nicotinate,"[2]; metabolite nicotinate, S2 Table Metabolomics",-1.365
same,ornithine,"[2]; metabolite ornithine, S2 Table Metabolomics",0.02843
same,phosphoenolpyruvate,"[2]; metabolite phosphoenolpyruvate, S2 Table Metabolomics",-0.5081
same,pyruvate,"[2]; metabolite pyruvate, S2 Table Metabolomics, change in metabolite level after compound treatment",-1.9111
same,ribose-phosphate,"[2]; metabolite ribose-phosphate, S2 Table Metabolomics",0.184
same,sarcosine/alanine,"[2]; metabolite sarcosine/alanine, S2 Table Metabolomics, change in metabolite level after compound treatment",-0.4398
same,sn-glycerol-3-phosphate,"[2]; metabolite sn-glycerol-3-phosphate, S2 Table Metabolomics",-0.3081
same,succinate/methylmalonic acid,"[2]; metabolite succinate/methylmalonic acid, S2 Table Metabolomics, change in metabolite level after compound treatment",-0.5239
same,uridine,"[2]; metabolite uridine, S2 Table Metabolomics, change in metabolite level after compound treatment",-1.376
same,xanthosine,"[2]; metabolite xanthosine, S2 Table Metabolomics, change in metabolite level after compound treatment",-0.974
same,EC50,P. falciparum,242 nM
